Laboratory results from patent US5426104A, “Tricyclic carbapenem compounds, methods of preparation and methods of use” (Glaxo SpA, priority 1991, dated 1995).
In brackets after ≈: the same amount, converted by molar mass.

Columns and labels:
[1] = intravenous administration to the mouse, adverse effects; format: in vivo; details: 500 mg/kg intravenously
From the text: (§1) The compounds of the invention are essentially non-toxic at therapeutically useful doses.

[2] = intravenous administration to the rat, adverse effects; format: in vivo; details: 500 mg/kg intravenously
From the text: as §1

E coli 1852E = details: 18 h
Procedure: (§2) For example the antibacterial activity of the compounds of the invention was determined using a standard microtiter broth serial dilution test. In this test the broth was incubated with approximately 10^5 colony forming units of the test organism and incubated at 35° for 18 hours in the presence of test compound.

S aureus 663E = assay: standard microtiter broth serial dilution test, S aureus 663E; details: 18 h
Procedure: as §2

E cloacae 3647 = assay: standard microtiter broth serial dilution test, E cloacae 3647; details: 18 h
Procedure: as §2

S faecalis 850E = assay: standard microtiter broth serial dilution test, S faecalis 850E; details: 18 h
Procedure: as §2

B fragilis 2017E = assay: standard microtiter broth serial dilution test, B fragilis 2017E; details: 18 h
Procedure: as §2

P aeruginosa 1911E = assay: standard microtiter broth serial dilution test, P aeruginosa 1911E; details: 18 h
Procedure: as §2

Row | SMILES | adverse effects [1] | adverse effects [2] | MIC (E coli 1852E) [µg/mL] | MIC (S aureus 663E) [µg/mL] | MIC (E cloacae 3647) [µg/mL] | MIC (S faecalis 850E) [µg/mL] | MIC (B fragilis 2017E) [µg/mL] | MIC (P aeruginosa 1911E) [µg/mL]
1 | C[C@@H](O)[C@H]1C(=O)N2C(C(=O)O)=C3[C@H](CCC[C@@H]3N(C)C=N)[C@H]12 [Example 1, (4S,8S,9R,10S,12R)-4-(N-methylformamidino)-10-(1-hydroxyethyl)-11-oxo-1-azatricyclo[7.2.0.0^3.^8]undec-2-ene-2-carboxylic acid] | no adverse effects were observed | no adverse effects were observed | 0.5 (≈ 1.63 µM) | 0.1 (≈ 0.325 µM) | 1 (≈ 3.25 µM) | 1 (≈ 3.25 µM) | 0.2 (≈ 0.651 µM) | 8 (≈ 26 µM)
2 | CN=CN[C@H]1CCC[C@H]2C1=C(C(=O)O)N1C(=O)[C@H]([C@@H](C)O)[C@@H]21 [Example 2, (4 S,8S,9R,10S,12R)-4-[(3'-methyl)formamidino)-10-(1-hydroxyethyl)-11-oxo-1-azatricyclo[7.2.0.0^3.^8]undec-2-ene-2-carboxylic acid] |  |  | 2 (≈ 6.51 µM) | 0.1 (≈ 0.325 µM) | 4 (≈ 13 µM) | 16 (≈ 52.1 µM) | 0.5 (≈ 1.63 µM) | 16 (≈ 52.1 µM)
